Measured values from the supplement of paper PMC10307832.

How the values were obtained:
Assay in all cases: relative viability (nuclei count vs DMSO), 5 days (fraction); higher = more cells survive
[1] = compound: Nc1ccn([C@@H]2O[C@H](CO)[C@@H](O)C2(F)F)c(=O)n1 [Gemcitabine] + N=C(N)NC(=N)NCCc1ccccc1 [Phenformin] (partner 250 µM)
Outline: (§1)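 Lung cancer cell lines in 1536-well plates got either a single drug or a fixed anchor-drug dose together with five library-drug doses (not always all listed) in √10 steps, by pin tool, on the day after seeding. Nuclei were counted after 5 days, and relative viability is the treated-to-vehicle ratio of nuclei counts. Values are medians of duplicate plates.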

[2] = compound: Nc1ccn([C@@H]2O[C@H](CO)[C@@H](O)C2(F)F)c(=O)n1 [Gemcitabine] + COc1cccc2cc(-c3nc([C@H]4CC[C@H](C(=O)O)CC4)n4ncnc(N)c34)[nH]c12 [OSI-027] (partner 0.5 µM)
Outline: as §1

[3] = compound: Nc1ccn([C@@H]2O[C@H](CO)[C@@H](O)C2(F)F)c(=O)n1 [Gemcitabine] + C[C@@H](Oc1cc(-c2cnn(C3CCNCC3)c2)cnc1N)c1c(Cl)ccc(F)c1Cl [Crizotinib] (partner 1 µM)
Outline: as §1

[4] = compound: Nc1ccn([C@@H]2O[C@H](CO)[C@@H](O)C2(F)F)c(=O)n1 [Gemcitabine] + CC(=O)Nc1cccc(-n2c(=O)n(C3CC3)c(=O)c3c(Nc4ccc(I)cc4F)n(C)c(=O)c(C)c32)c1 [Trametinib] (partner 0.02 µM)
Outline: as §1

Cell Line	relative viability ([1]; first compound 0.001 µM)	relative viability ([1]; first compound 0.003162 µM)	relative viability ([1]; first compound 0.01 µM)	relative viability ([1]; first compound 0.03162 µM)	relative viability ([1]; first compound 0.1 µM)	relative viability ([2]; first compound 0.001 µM)	relative viability ([2]; first compound 0.003162 µM)	relative viability ([2]; first compound 0.01 µM)	relative viability ([2]; first compound 0.03162 µM)	relative viability ([2]; first compound 0.1 µM)	relative viability ([3]; first compound 0.001 µM)	relative viability ([3]; first compound 0.003162 µM)	relative viability ([3]; first compound 0.01 µM)	relative viability ([3]; first compound 0.03162 µM)	relative viability ([3]; first compound 0.1 µM)	relative viability ([4]; first compound 0.001 µM)	relative viability ([4]; first compound 0.003162 µM)	relative viability ([4]; first compound 0.01 µM)	relative viability ([4]; first compound 0.03162 µM)	relative viability ([4]; first compound 0.1 µM)
HCC-366	0.622	0.662	0.144	0.0348	0.0327	0.899	1.23	0.478	0.0351	0.0249	0.629	0.588	0.0778	0.0184	0.0078	0.284	0.392	0.0497	0.0318	0.0203
HCC-827	0.448	0.248	0.281	0.197	0.154	0.802	0.477	0.444	0.159	0.159	0.886	0.674	0.572	0.387	0.214	0.537	0.247	0.316	0.184	0.156
HOP-62	0.67	0.492	0.239	0.0719	0.0597	0.681	0.557	0.141	0.127	0.0935	0.906	0.677	0.0595	0.051	0.0502	0.366	0.405	0.24	0.122	0.0817
IA-LM	–	–	–	–	–	–	–	–	–	–	–	0.615	0.254	0.0992	0.0456	–	–	–	–	–
LC-2-ad	0.569	0.347	0.339	0.212	0.161	0.817	0.578	0.279	0.195	0.188	0.471	–	0.427	0.162	0.109	0.926	1.01	0.845	0.645	0.236
LCLC-97TM1	0.376	0.406	0.179	0.187	0.144	0.468	0.524	0.138	0.121	0.116	0.297	0.179	0.0935	0.0797	0.12	0.169	0.143	0.12	0.126	0.0828
LCLC-103H	0.321	0.318	0.279	0.198	0.193	0.442	0.449	0.418	0.288	0.296	1.12	1.07	0.934	0.997	0.272	0.61	0.695	0.709	0.712	0.56
LK-2	0.834	0.43	0.313	0.142	0.142	0.217	0.18	0.167	0.163	0.155	0.285	–	0.255	0.238	0.225	0.926	0.65	0.731	0.206	0.167
LOU-NH91	0.723	0.498	0.442	0.225	0.21	0.709	0.616	0.45	0.252	0.215	0.715	0.594	0.451	0.286	0.271	0.787	0.762	0.578	0.466	0.358
LU99A	0.857	0.949	0.805	0.801	0.789	0.275	0.348	0.307	0.304	0.286	0.577	0.648	0.567	0.567	0.562	0.575	0.635	0.563	0.594	0.387
LXF-289	0.517	0.445	0.263	0.0911	0.0812	0.93	0.77	0.236	0.0894	0.105	0.786	0.783	0.562	0.127	0.112	0.644	0.683	0.611	0.205	0.147
NCI-H23	0.71	0.491	0.144	0.136	0.135	0.544	0.272	0.127	0.151	0.108	0.297	0.206	0.12	0.131	0.152	0.277	0.179	0.121	0.12	0.1
NCI-H522	0.653	0.524	0.47	0.396	0.384	0.653	0.463	0.384	1.12	0.393	–	–	–	–	–	0.705	0.628	0.36	0.347	0.319
NCI-H1395	0.403	0.417	0.321	0.315	0.318	0.705	0.493	0.391	0.313	0.303	–	–	–	–	–	1.01	0.841	0.554	0.424	0.359
NCI-H1563	0.66	0.605	0.53	0.494	0.497	0.761	0.726	0.631	0.5	0.545	0.861	0.993	0.917	0.635	0.411	–	–	–	–	–
NCI-H1648	–	–	–	–	–	0.245	–	0.245	0.228	0.276	–	–	–	–	–	0.423	0.339	0.473	0.326	0.234
NCI-H1703	–	–	–	–	–	–	–	–	–	–	0.588	0.208	0.11	0.125	0.0932	–	–	–	–	–
NCI-H1793	0.38	0.324	0.223	0.166	0.13	0.236	0.286	0.205	0.159	0.116	–	–	–	–	–	0.385	0.45	0.256	0.187	0.15
NCI-H2342	0.477	0.426	0.539	0.281	0.315	0.652	0.629	0.563	0.392	0.381	–	–	–	–	–	0.862	0.904	0.561	0.545	0.311
SW 900	0.654	0.181	0.0793	0.0687	0.0927	0.526	0.241	0.13	0.0871	0.0793	–	–	–	–	–	0.722	0.609	0.119	0.142	0.13
